From patent publication US5691373A, “Nonpeptide endothelin antagonists I” (Warner-Lambert Company, priority 1995, dated 1997)
Like-named read-outs stand apart in the source and are kept apart here. Where a SMILES comes first, the peptide text is derived from it. [ ]: non-standard residue; d: D form.

Columns and labels:
ETB [1] = settings: isolated, endothelium-intact porcine pulmonary arteries; cited from earlier work
ETA [2] = target: T1, ETA (Oryctolagus cuniculus, UniProt A5A8K3)
T1 sequence (A5A8K3 21-427): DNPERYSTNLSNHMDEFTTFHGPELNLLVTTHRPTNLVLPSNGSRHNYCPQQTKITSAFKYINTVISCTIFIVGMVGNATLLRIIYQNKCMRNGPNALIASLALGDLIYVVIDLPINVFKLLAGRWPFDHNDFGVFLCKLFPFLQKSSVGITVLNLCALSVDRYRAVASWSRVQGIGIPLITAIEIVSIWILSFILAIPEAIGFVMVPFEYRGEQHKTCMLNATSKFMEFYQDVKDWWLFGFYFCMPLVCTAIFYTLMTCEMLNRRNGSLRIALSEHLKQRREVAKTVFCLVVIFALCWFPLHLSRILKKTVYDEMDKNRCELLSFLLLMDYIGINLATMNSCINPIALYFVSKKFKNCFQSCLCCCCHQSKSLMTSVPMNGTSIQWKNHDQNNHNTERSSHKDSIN

ETA [3] = target: T1, ETA; test: VERA-A: antagonism of ET-1 stimulated vasoconstriction in the rabbit femoral artery (ETA); assay type: cell-based; settings: ET-1, rabbit femoral artery; for Kb: read-out: VERA-A pA2 (converted)
Outline: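 Endothelium-denuded 4-mm rings of femoral and pulmonary artery from male New Zealand rabbits. Resting tension 3.0 g for femoral and 4.0 g for pulmonary rings, with 90 min equilibration.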

ETB [4] = target: T2, ETB (Rattus norvegicus, UniProt P21451)
T2 sequence (P21451 27-442): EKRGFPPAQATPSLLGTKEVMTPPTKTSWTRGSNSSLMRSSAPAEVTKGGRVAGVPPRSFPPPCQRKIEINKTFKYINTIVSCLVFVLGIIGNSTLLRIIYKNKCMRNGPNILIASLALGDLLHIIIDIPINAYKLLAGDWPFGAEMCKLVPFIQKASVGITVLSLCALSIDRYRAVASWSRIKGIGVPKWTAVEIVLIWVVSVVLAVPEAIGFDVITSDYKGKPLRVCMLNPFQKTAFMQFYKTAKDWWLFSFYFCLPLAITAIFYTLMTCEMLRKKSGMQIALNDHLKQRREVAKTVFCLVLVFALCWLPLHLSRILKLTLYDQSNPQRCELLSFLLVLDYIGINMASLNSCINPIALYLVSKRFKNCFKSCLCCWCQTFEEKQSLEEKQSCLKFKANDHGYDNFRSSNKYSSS
Description: The tissue is made up of 20 mM tris(hydroxymethyl)aminomethane hydrochloride (Trizma) buffer, 2 mM ethylenediaminetetra acetate, 100 μM phenylmethylsulfonyl fluoride.
First, thaw one aliquot of frozen rat cerebellar membranes (2 mg protein in 0.5 mL). Next, add 0.5 mL membrane aliquot to 4.5 mL cold tissue buffer, polytron at 7,500 revolutions per minute for 10 seconds. Finally, dilute tissue suspension 1/100 (0.1 mL suspension+9.9 mL tissue buffer), polytron again, and place ice.
Mix in 150 μL of tissue to each tube, vortex briefly, then tap to force all liquids to bottom (total assay volume=250 μL). Then place the tubes in a 37° C. water bath for 2 hours.
Add 2.5 mL cold wash buffer (50 mM Trizma buffer) to each tube, filter, and then wash tube with additional 2.5 mL wash buffer and add to filter. Finally, wash filters with an additional 2.5 mL of cold wash buffer.
Count filters for radioactivity in gamma counter.

ETA [5] = target: T1, ETA; remark: listed apart in the source
cerebral vasospasm [6] = settings: cited from earlier work
[7] = test system: ET-1 induced bronchoconstriction and tracheal smooth muscle contraction; settings: allergic sheep; cited from earlier work
endotoxic shock = settings: cited from earlier work
cerebral vasospasm [8] = settings: in vivo; cited from earlier work
cerebral vasospasm [9] = settings: cited from earlier work; for early cerebral vasospasm following SAH: rat
acute renal ischemia = settings: rats; cited from earlier work
ETA [10] = settings: cited from earlier work
human ETB receptor = target: T3, human ETB receptor (Homo sapiens, UniProt P24530); test: ERBA-B: [125I]-ET-1 binding, recombinant human ETB receptor expressed in CHO-K1 cells; settings: human cloned ETB receptor, read-out: ERBA-B IC50, human cloned receptor data
T3 construct: expressed in transfected cells; host or cells: CHO-K1 cells, pRc-CMW (so in the source) expression vector, electroporation; membranes used
T3 sequence (P24530 27-442): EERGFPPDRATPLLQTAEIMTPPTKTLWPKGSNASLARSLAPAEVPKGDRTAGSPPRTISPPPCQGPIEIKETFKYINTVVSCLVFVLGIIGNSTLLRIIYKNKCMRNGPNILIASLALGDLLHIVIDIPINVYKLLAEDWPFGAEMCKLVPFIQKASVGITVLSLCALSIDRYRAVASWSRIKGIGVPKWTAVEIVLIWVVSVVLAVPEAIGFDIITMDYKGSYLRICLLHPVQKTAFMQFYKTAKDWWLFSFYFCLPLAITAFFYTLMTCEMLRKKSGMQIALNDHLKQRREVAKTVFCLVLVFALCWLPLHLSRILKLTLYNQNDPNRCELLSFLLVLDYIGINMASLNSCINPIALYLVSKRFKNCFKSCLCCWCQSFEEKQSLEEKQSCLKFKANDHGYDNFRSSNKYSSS

[11] = test system: ET-1 Induced Pressor Response; test: inhibition of ET-1 induced pressor response in anesthetized ganglionic blocked rats; assay type: in vivo, rat (Sprague Dawley); settings: IV, ET-1 1 nm/kg
Description: Antagonists were administered IV bolus (3, 10, 30, 100 μmol/kg, IV bolus) in separate groups of rats (5 minutes before ET-1 challenge [see Haleen, et al., J. Cardiovasc, Pharm., 22(Suppl. 8):598-5102 (1993)]). Duration of action of the antagonist was determined in conscious, chronically prepared normotensive rats. Rats were challenged with ET-1 (1.0 nmol/kg, IV bolus) on 5 consecutive days; Day =b 1 =l control and on Days 2-5 at 5, 20, 60, and 120 minutes following treatment with the antagonist. Separate groups of rats were used for each antagonist treatment.

[12] = ERBA-A IC50, [125I]-ET-1, rabbit renal artery vascular smooth muscle cells

Compound: N-Acetyl-ET[10-21,11,15-Ala]
- vasorelaxation (ETB [1]): caused vasorelaxation

Compound: COc1ccc(C2(O)OC(=O)C(c3ccc4c(c3)OCO4)=C2Cc2cccc(C(F)(F)F)c2)cc1 (stereo not shown) [Example 82, 3-Benzo[1,3]dioxol-5-yl-5-hydroxy-5-(4-methoxyphenyl)-4-(3-trifluoromethylbenzyl)-5H-furan-2-one]
- IC50 (ETA [2]; [12]): 20 nM
- Kb (ETA [3]): 2510 nM
- IC50 (ETB [4]): 1300 nM
- IC50 (ETA [5]): 140 nM

Compound: ET[6-21, 1,3,11,15-Ala]
- vasorelaxation (ETB [1]): caused vasorelaxation

Compound: CC(C)C[C@@H]1NC(=O)[C@@H](C(C)C)NC(=O)[C@@H]2CCCN2C(=O)[C@@H](CC(=O)O)NC(=O)[C@@H](Cc2c[nH]c3ccccc23)NC1=O [BQ-123] (cyclo(L[dW][dD]P[dV]))
- early cerebral vasospasm following SAH (cerebral vasospasm [6]; rabbit): prevents early cerebral vasospasm following SAH
- ET-1 induced bronchoconstriction and tracheal smooth muscle contraction [7]: block ET-1 induced bronchoconstriction and tracheal smooth muscle contraction
- survival rate (endotoxic shock): significantly increased the survival rate
- early cerebral vasospasm following subarachnoid hemorrhage (cerebral vasospasm [8]): prevent early cerebral vasospasm following subarachnoid hemorrhage
- early cerebral vasospasm following SAH (cerebral vasospasm [9]): prevents early cerebral vasospasm following SAH

Compound: COc1ccccc1Oc1c(NS(=O)(=O)c2ccc(C(C)(C)C)cc2)nc(-c2ncccn2)nc1OCCO [Ro 47-0203, Bosentan]
- reduction of basilar artery cross-sectional area compared to sham (cerebral vasospasm [6]; rabbits with SAH): 36±7%

Compound: COc1cccc(Oc2c(NS(=O)(=O)c3ccc(C(C)(C)C)cc3)ncnc2OCCO)c1 [Ro 46-2005]
- systemic arterial blood pressure (cerebral vasospasm [9]; rat with SAH): no significant effect on systemic arterial blood pressure
- early cerebral vasospasm following SAH (cerebral vasospasm [9]): prevent early cerebral vasospasm following SAH
- efficacy in subarachnoid hemorrhage (cerebral vasospasm [9]; rats): effective in models of acute renal ischemia and subarachnoid hemorrhage
- efficacy in acute renal ischemia (acute renal ischemia): effective in models of acute renal ischemia

Compound: CCCOc1cccc(CC2=C(c3ccc4c(c3)OCO4)C(=O)OC2(O)c2ccc(OC)cc2)c1 (stereo not shown) [Example 159, 3-Benzo[1,3]dioxol-5-yl-5-hydroxy-5-(4-methoxyphenyl)-4-(3-propoxybenzyl)-5 H-furan-2-one]
- IC50 (ETA [2]; [12]): 12 nM
- Kb (ETA [3]): 100 nM
- IC50 (ETB [4]): 560 nM
- IC50 (ETA [5]): 36 nM

Compound: Cc1noc(NS(=O)(=O)c2cccc3c(N(C)C)cccc23)c1C [5-(Dimethylemino)-N-(3,4-dimethyl-5-isoxazolyl)-1-naphthalenesulfonamide]
- oral antihypertensive effect (ETA [10]): demonstrated an oral antihypertensive effect

Compound: CCCOc1cccc(C/C(C(=O)c2ccc(OC)cc2)=C(/C(=O)O)c2ccc3c(c2)OCO3)c1 [Example 253, 2-Butenoic acid, 2-(1,3-benzodioxol-5-yl)-4-(4-methoxyphenyl)-4-oxo-3-[(3-propoxyphenyl)methyl]-, (Z)-, ion(1-) compound with 2-hydroxy-N,N,N-trimethylethanaminium (1:1)]
- IC50 (ETA [2]; read-out: ERBA-A IC50, [125I]-ET-1, rabbit renal artery vascular smooth muscle cells): 17 nM
- IC50 (human ETB receptor): 900 nM
- VERA-A pA2 (ETA [3]): 7.0
- % Inhibition on ET-1 Induced Pressor Response ([11]; 3 μmol/kg): 22%
- % Inhibition on ET-1 Induced Pressor Response ([11]; 10 μmol/kg): 42%
- % Inhibition on ET-1 Induced Pressor Response ([11]; 30 μmol/kg): 53%

Compound: COc1ccc(C(=O)/C(Cc2ccccc2)=C(\C(=O)O)c2ccc3c(c2)OCO3)cc1 [Example 171, 2-Butenoic acid, 2-(1,3-benzodioxol-5-yl)-4-(4-methoxyphenyl)-4-oxo-3-(phenylmethyl)-, (Z)-, ion(1-) compd. with 2-hydroxy-N,N,N-triethanaminium (1:1)]
- IC50 (ETA [2]; [12]): 39 nM
- % Inhibition on ET-1 Induced Pressor Response ([11]; 3 μmol/kg): 21%
- % Inhibition on ET-1 Induced Pressor Response ([11]; 10 μmol/kg): 26%
- % Inhibition on ET-1 Induced Pressor Response ([11]; 30 μmol/kg): 35%
- % Inhibition on ET-1 Induced Pressor Response ([11]; 100 μmol/kg): 57%
- IC50 (ETB [4]): 2200 nM

Compound: ET[8-21,11,15-Ala]
- vasorelaxation (ETB [1]): caused vasorelaxation
